Measured values published in patent US9328106B2, “Cyclic ether pyrazol-4-yl-heterocyclyl-carboxamide compounds and methods of use” (Genentech, Inc., priority 2012, dated 2016).

Target: PIM1 (Homo sapiens (Human), UniProt P11309)
Assay: biochemical
Assay type: biochemical
Details: 20 pM PIM1, 1 μM FAM-peptide, 10 μM ATP, 90 minutes at room temperature; read-out: PIM1 LC3K (KI)

Sequence of PIM1 (P11309 whole entry): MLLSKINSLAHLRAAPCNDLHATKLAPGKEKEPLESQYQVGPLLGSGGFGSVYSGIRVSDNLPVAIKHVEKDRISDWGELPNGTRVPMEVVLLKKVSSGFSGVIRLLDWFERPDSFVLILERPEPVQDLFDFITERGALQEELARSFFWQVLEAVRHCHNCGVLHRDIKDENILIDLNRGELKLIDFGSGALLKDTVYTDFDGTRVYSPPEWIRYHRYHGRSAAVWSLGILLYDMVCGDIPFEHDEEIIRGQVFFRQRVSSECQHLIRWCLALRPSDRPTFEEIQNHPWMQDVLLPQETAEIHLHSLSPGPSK

SMILES	Ki [pM]
Cn1ncc(NC(=O)c2csc(-c3c(F)cncc3F)n2)c1[C@@H]1CC[C@@H](N)[C@@H](F)CO1 [Example 247, N-(5-((2S,5R,6R)-5-amino-6-fluorooxepan-2-yl)-1-methyl-1H-pyrazol-4-yl)-2-(3,5-difluoropyridin-4-yl)thiazole-4-carboxamide]	112
Cn1ncc(NC(=O)c2nc(C3CCCC3)sc2N)c1[C@@H]1CC[C@@H](N)[C@@H](F)CO1 [Example 272, 5-amino-N-(5-((2S,5R,6R)-5-amino-6-fluorooxepan-2-yl)-1-methyl-1H-pyrazol-4-yl)-2-cyclopentylthiazole-4-carboxamide]	992
COC1(c2c(NC(=O)c3nc(-c4c(F)cccc4F)sc3N)cnn2C)CCCCO1 (stereo not drawn) [Example 103, 5-amino-2-(2,6-difluorophenyl)-N-[5-(2-methoxytetrahydropyran-2-yl)-1-methyl-pyrazol-4-yl]thiazole-4-carboxamide]	209
Cn1ncc(NC(=O)c2nc(-c3c(F)cccc3F)sc2N)c1C1=CCOCC1 [Example 101, 5-amino-2-(2,6-difluorophenyl)-N-[5-(3,6-dihydro-2H-pyran-4-yl)-1-methyl-pyrazol-4-yl]thiazole-4-carboxamide]	485
CO[C@@H]1C[C@@H](c2c(NC(=O)c3nc(-c4c(F)cccc4F)sc3N)cnn2C)OCC[C@H]1N [Example 136, 5-amino-N-(5-((2S,4R,5R)-5-amino-4-methoxyoxepan-2-yl)-1-methyl-1H-pyrazol-4-yl)-2-(2,6-difluorophenyl)thiazole-4-carboxamide]	57
COc1cc(F)c(-c2nc(C(=O)Nc3cnn(C)c3[C@@H]3CC[C@@H](N)[C@H](F)CO3)ccc2F)c(F)c1 [Example 201, N-(5-((2S,5R,6S)-5-amino-6-fluorooxepan-2-yl)-1-methyl-1H-pyrazol-4-yl)-6-(2,6-difluoro-4-methoxyphenyl)-5-fluoropicolinamide]	19
Cc1ccc(F)c(-c2nc(C(=O)Nc3cnn(C)c3[C@@H]3CC[C@@H](N)[C@@H](F)CO3)c(N)s2)c1 [Example 274, 5-amino-N-(5-((2S,5R,6R)-5-amino-6-fluorooxepan-2-yl)-1-methyl-1H-pyrazol-4-yl)-2-(2-fluoro-5-methylphenyl)thiazole-4-carboxamide]	20
Cn1ncc(NC(=O)c2ccc(F)c(-c3c(F)cc(C(O)(CO)CO)cc3F)n2)c1[C@@H]1CC[C@@H](N)[C@@H](F)CO1 [Example 212, N-(5-((2S,5R,6R)-5-amino-6-fluorooxepan-2-yl)-1-methyl-1H-pyrazol-4-yl)-6-(2,6-difluoro-4-(1,2,3-trihydroxypropan-2-yl)phenyl)-5-fluoropicolinamide]	162
Cn1ncc(NC(=O)c2csc(-c3c(F)ccc(F)c3F)n2)c1[C@@H]1CC[C@@H](N)[C@H](F)CO1 [Example 243, N-(5-((2S,5R,6S)-5-amino-6-fluorooxepan-2-yl)-1-methyl-1H-pyrazol-4-yl)-2-(2,3,6-trifluorophenyl)thiazole-4-carboxamide]	47
Cn1ncc(NC(=O)c2nc(-c3cc(F)cc(F)c3F)sc2N)c1[C@@H]1CC[C@@H](N)[C@@H](F)CO1 [Example 261, 5-amino-N-(5-((2S,5R,6R)-5-amino-6-fluorooxepan-2-yl)-1-methyl-1H-pyrazol-4-yl)-2-(2,3,5-trifluorophenyl)thiazole-4-carboxamide]	37
Cn1ncc(NC(=O)c2csc(-c3cccc(F)c3F)n2)c1[C@@H]1CC[C@@H](N)[C@H](F)CO1 [Example 306, N-(5-((2S,5R,6S)-5-amino-6-fluorooxepan-2-yl)-1-methyl-1H-pyrazol-4-yl)-2-(2,3-difluorophenyl)thiazole-4-carboxamide]	44
Cn1cc(-c2nc(C(=O)Nc3cnn(C)c3[C@@H]3CC[C@@H](N)[C@@H](F)CO3)cs2)c(C(F)(F)F)n1 [Example 252, N-(5-((2S,5R,6R)-5-amino-6-fluorooxepan-2-yl)-1-methyl-1H-pyrazol-4-yl)-2-(1-methyl-3-(trifluoromethyl)-1H-pyrazol-4-yl)thiazole-4-carboxamide]	281
Cc1noc(C)c1-c1nc(C(=O)Nc2cnn(C)c2[C@@H]2CC[C@@H](N)[C@H](F)CO2)cs1 [Example 234, N-(5-((2S,5R,6S)-5-amino-6-fluorooxepan-2-yl)-1-methyl-1H-pyrazol-4-yl)-2-(3,5-dimethylisoxazol-4-yl)thiazole-4-carboxamide]	68
Cn1ncc(NC(=O)c2nc(-c3ccccc3C(F)(F)F)sc2N)c1[C@@H]1CC[C@@H](N)[C@@H](F)CO1 [Example 270, 5-amino-N-(5-((2S,5R,6R)-5-amino-6-fluorooxepan-2-yl)-1-methyl-1H-pyrazol-4-yl)-2-(2-(trifluoromethyl)phenyl)thiazole-4-carboxamide]	53
Cn1ncc(NC(=O)c2csc(-c3cccc(C(F)(F)F)n3)n2)c1[C@@H]1CC[C@@H](N)[C@H](F)CO1 [Example 314, N-(5-((2S,5R,6S)-5-amino-6-fluorooxepan-2-yl)-1-methyl-1H-pyrazol-4-yl)-2-(6-(trifluoromethyl)pyridin-2-yl)thiazole-4-carboxamide]	2080
Cc1cc(F)c(-c2nc(C(=O)Nc3cnn(C)c3[C@@H]3CC[C@@H](N)[C@H](F)CO3)ccc2F)c(F)c1 [Example 392, N-(5-((2S,5R,6S)-5-amino-6-fluorooxepan-2-yl)-1-methyl-1H-pyrazol-4-yl)-6-(2,6-difluoro-4-methylphenyl)-5-fluoropicolinamide]	41
Cn1ncc(NC(=O)c2nc(-c3c(F)cccc3F)sc2N)c1C1CCC(N)C(F)CO1 (stereo not drawn) [Example 124, 5-amino-N-[5-(5-amino-6-fluoro-oxepan-2-yl)-1-methyl-pyrazol-4-yl]-2-(2,6-difluorophenyl)thiazole-4-carboxamide]	15
Cn1ncc(NC(=O)c2csc(-c3cccc(F)c3Cl)n2)c1[C@@H]1CC[C@@H](N)[C@H](F)CO1 [Example 309, N-(5-((2S,5R,6S)-5-amino-6-fluorooxepan-2-yl)-1-methyl-1H-pyrazol-4-yl)-2-(2-chloro-3-fluorophenyl)thiazole-4-carboxamide]	274
Cn1ncc(NC(=O)c2csc(-c3c(F)cc(C4(O)CCC4)cc3F)n2)c1[C@@H]1CC[C@@H](N)[C@H](F)CO1 [Example 295, N-(5-((2S,5R,6S)-5-amino-6-fluorooxepan-2-yl)-1-methyl-1H-pyrazol-4-yl)-2-(2,6-difluoro-4-(1-hydroxycyclobutyl)phenyl)thiazole-4-carboxamide]	27
Cc1cccnc1-c1nc(C(=O)Nc2cnn(C)c2[C@@H]2CC[C@@H](N)[C@H](F)CO2)cs1 [Example 231, N-(5-((2S,5R,6S)-5-amino-6-fluorooxepan-2-yl)-1-methyl-1H-pyrazol-4-yl)-2-(3-methylpyridin-2-yl)thiazole-4-carboxamide]	45
CO[C@H]1C[C@H](c2c(NC(=O)c3nc(-c4c(F)cccc4F)sc3N)cnn2C)OCC[C@@H]1N [Example 138, 5-amino-N-(5-((2R,4S,5S)-5-amino-4-methoxyoxepan-2-yl)-1-methyl-1H-pyrazol-4-yl)-2-(2,6-difluorophenyl)thiazole-4-carboxamide]	1870
